The NIST ThermoML archive (doi:10.1016/j.jct.2019.03.001)
± gives the expanded uncertainty stated by the source.

Assay: refractive index (Na D-line) (dimensionless)
Settings: 293.15 K; 101.33 kPa; Liquid; Standard Abbe refractometry

## CCCCO [butan-1-ol]
  refractive index: 1.3993 ± 0.0007
